These are literature values, as cited in patent US20220031887A1, “Active Materials, Surfaces, Surface Treatments And Methods Using Inclusion Complex Formers For Pathogen Reduction” (priority 2020, published 2022).

SMILES strings stand for the structures.

For the compound `O=C1OC2(c3ccccc31)c1cc(Br)c(O)c(Br)c1Oc1c2cc(Br)c(O)c1Br` [Eosin Y], the Epsilon (in ideal solvent) is on record as 112,000. For the setting “peak absorption in visible light”, the “Lambda Max” value is listed as 525.
